Molecule `CN(C)C(=O)C1=C(C(=O)N(C)C)C2c3ccccc3C1c1ccccc12` returned a pKa of -2.68.

The molecule `CN(C)CCC=C1c2ccccc2CCc2ccccc21` gave a pKa of 9.4.

With `Cl.Fc1ccc2c(c1)N(CCCN1CCCC1)c1cc(F)ccc1CC2`, the pKa came out at 7.6.

`Cc1ccc(Nc2c3ccccc3nc3ccccc23)cc1` displayed a pKa of 7.72.

With `COc1cc(NS(C)(=O)=O)ccc1Nc1c2ccccc2nc2c(-c3ccccc3)cccc12`, the pKa was found to be 7.02.

Turning to `Cc1ccc(C(=O)c2ccc(CC(=O)O)n2C)cc1`, the pKa was determined as 3.5.

With `Cc1nc2c(/C=C/c3ccccc3)cccn2c1C`, the pKa was found to be 7.2.

With `NC(N)=S`, the pKa came out at 21.1.

`O=C1Nc2ccc(Cl)cc2C1(c1c[nH]c2ccccc12)c1c[nH]c2ccccc12` returned a pKa of -6.84.

In the case of `CCCCCOC(=O)c1ccc(OS(N)(=O)=O)cc1`, the pKa came to 8.47.

Consider `NS(=O)(=O)Cc1ccc(Nc2c3ccccc3nc3ccccc23)cc1`, for which the pKa turned out to be 7.05.

For `FC1CCCNC1` (stereo not given), the pKa worked out at 9.3.

Molecule `CCNc1ccc(Nc2c3ccccc3nc3ccccc23)cc1` showed a pKa of 8.3.

Consider `CS(=O)(=O)Nc1ccc(Nc2c3ccccc3nc3c(Cl)cccc23)cc1`, for which the pKa was determined as 5.92.

In turn, `CS(=O)(=O)Nc1ccc(Nc2c3ccccc3nc3cc(Br)ccc23)cc1` displayed a pKa of 6.56.

For the molecule `CS(=O)(=O)Nc1ccc(Nc2c3ccccc3nc3cnccc23)cc1`, the pKa is 5.32.

Molecule `COc1cccc(Nc2c3ccccc3nc3ccccc23)c1` returned a pKa of 7.21.

Molecule `COc1cc(NS(C)(=O)=O)ccc1Nc1c2ccccc2nc2cc(C(F)(F)F)ccc12` yielded a pKa of 6.24.

`CN(C)CCCNc1c2ccccc2nc2cccc([N+](=O)[O-])c12`: the pKa was determined as 6.21.

Molecule `CS(=O)(=O)O.NC(=O)Cc1ccc(Nc2c3ccccc3nc3ccccc23)cc1` returned a pKa of 7.43.

`O=S1NC(CCc2ccccc2)=NO1` (stereo not given) had a pKa of 5.23.

`CS(=O)(=O)NCc1ccccc1Nc1c2ccccc2nc2ccccc12`: the pKa stood at 7.17.

Regarding `c1nnn[nH]1`, the pKa was -3.

`CCc1ccccc1Nc1c2ccccc2nc2ccccc12` gave a pKa of 7.68.

The molecule `CN(C)CCCNc1ccnc2cccc([N+](=O)[O-])c12` returned a pKa of 6.39.

On to `CS(=O)(=O)Nc1ccc(Nc2c3ccccc3nc3cc([N+](=O)[O-])ccc23)cc1`, for which the pKa was 5.52.

In turn, `CN(C)CCCN1c2cc(F)ccc2CCc2ccc(F)cc21.Cl` showed a pKa of 7.6.

The molecule `CN(C)CC(F)(F)F` came in with a pKa of 4.8.

Turning to `COc1cc(NS(C)(=O)=O)ccc1Nc1c2ccccc2nc2c(C(=O)NCC(O)CO)cccc12` (stereo not given), the pKa came out at 6.34.

In turn, `O=c1[nH]c2cc(Cl)ccc2c(O)c1-c1ccccc1` had a pKa of 5.4.

Take `CCOc1cccc2c(Nc3ccc(NS(C)(=O)=O)cc3OC)c3ccccc3nc12`: the pKa was 7.37.

The molecule `CS(=O)(=O)Nc1ccc(Nc2c3ccccc3nc3ccc(N)cc23)cc1` had a pKa of 7.15.

With `Cc1nc(C)nc(N2C[C@@H](C)N(c3ccnc([C@@H](C)O)n3)[C@@H](C)C2)n1`, the pKa amounted to 4.8.

`Clc1cccc(Cl)c1NC1=NCCN1`: the pKa is 8.05.

In turn, `CCN(CCN(CC(=O)O)CC(=O)O)CCN(CC(=O)O)CC(=O)O` showed a pKa of 2.8.

In turn, `Cc1c(N(C)C)c(=O)n(-c2ccccc2)n1C` displayed a pKa of 4.48.

Regarding `Cc1ncc[nH]1`, the pKa was found to be 7.86.

Molecule `COc1cccc2c(Nc3ccc(NS(C)(=O)=O)cc3)c3ccccc3nc12` returned a pKa of 7.15.

Molecule `NC(=O)CF` showed a pKa of 22.3.

For the molecule `Cc1cc(=O)oc2cc(O)ccc12`, the pKa was found to be 7.8.

Molecule `CO/N=C(\C#N)C1CN2CCC1CC2` (stereo not given) returned a pKa of 8.96.

Take `CC1=CN(c2ccc(S(N)(=O)=O)cc2)C(C2C=CN(C)C=C2)N1` (stereo not given): the pKa is 7.26.

As for `CCS(=O)(=O)Nc1ccc(Nc2c3ccccc3nc3ccccc23)cc1`, the pKa was determined as 7.19.

Turning to `COc1ccc2nc3ccccc3c(Nc3ccc(NS(C)(=O)=O)cc3)c2c1`, the pKa was 6.87.

On to `N#Cc1ccc(Nc2c3ccccc3nc3ccccc23)cc1`, for which the pKa came out at 5.93.

Turning to `CC(=O)Nc1ccc(Nc2c3ccccc3nc3ccccc23)cc1`, the pKa was 7.51.

In turn, `O=C(Nc1ccon1)N1CCN(Cc2cccc(Oc3ccc(Cl)cc3)c2)CC1` had a pKa of -2.97.

For `O=[PH](O)CCc1ccccc1`, the pKa was 1.98.

On to `Cc1ccc(NS(=O)(=O)Cc2ccccc2)c(=O)n1CC(=O)NCc1ccc(C(=N)N)c(F)c1`, for which the pKa is 9.2.

On to `COc1cccc(S(=O)(=O)Nc2cccn(CC(=O)NCc3ccc(C(=N)N)cc3F)c2=O)c1`, for which the pKa stood at 9.4.

As a reminder, the pKa is the pH at which an ionisable group is half protonated. Lower therefore signals a stronger acid or weaker base.

The values are drawn from the pKa sets of Baltruschat and Czodrowski (2020).
